Publication PMC2719696, “Kinetics and Cellular Site of Glycolipid Loading Control the Outcome of Natural Killer T Cell Activation” (Immunity, 2009)

How the values were obtained:
murine iNKT cell TCRs = test: Equilibrium binding of glycolipid-loaded mCD1d tetramers to murine iNKT cells; design: species or system mouse; details: tetramer staining of murine iNKT cells
Experimental: The interactions of iNKT cell TCRs with CD1d molecules loaded with αGalCer analogs were analyzed with fluorescent murine and human CD1d tetramers. […] Equilibrium binding studies for measuring TCR avidities were carried out by incubation of human or murine iNKT cells with varying concentrations of αGalCer-analog-loaded tetramers and determining relative levels of cell-associated fluorescence ([Stanic et al., 2003; Yu et al., 2005]).
Figure 2 Characterization of iNKT Cell TCR Interactions with αGalCer Analogs (A) Flow cytometry analysis of human and murine iNKT cells with αGalCer analog-CD1d tetramers. In the top row, murine iNKT cells from C57BL/6 splenocytes were costained with αGalCer analog-loaded or unloaded mCD1d tetramers conjugated with PE (x axis) and αGalCer-C26:0-loaded-mCD1d tetramers conjugated with APC (y axis). In the bottom row, human PBMCs were similarly costained with human glycolipid-loaded CD1d tetramers. (B) Binding avidity of glycolipid-mCD1d complexes to murine iNKT cell TCRs. Histograms at left show tetramer staining of NK1.1^+ CD3^+ T cells in C57BL/6 splenocytes with glycolipid-loaded tetramers at 20 nM. […]
Recombinant CD1d proteins were produced and assembled into tetramers for staining as previously described ([Forestier et al., 2007]). […] All samples were analyzed with the FACSCalibur flow cytometer (BD Biosciences).

mCD1d = target: T1, mCD1d (Mus musculus, UniProt P11609); test: mAb L363 staining of αGalCer-mCD1d complexes on cultured mouse splenocytes; assay type: cell-based; details: 100 nM glycolipid, 1 hr or 19 hr
T1 construct: host or cells: JAWS II (C57BL/6.Trp53-/- derived dendritic cell line)
T1 sequence (P11609 22-336): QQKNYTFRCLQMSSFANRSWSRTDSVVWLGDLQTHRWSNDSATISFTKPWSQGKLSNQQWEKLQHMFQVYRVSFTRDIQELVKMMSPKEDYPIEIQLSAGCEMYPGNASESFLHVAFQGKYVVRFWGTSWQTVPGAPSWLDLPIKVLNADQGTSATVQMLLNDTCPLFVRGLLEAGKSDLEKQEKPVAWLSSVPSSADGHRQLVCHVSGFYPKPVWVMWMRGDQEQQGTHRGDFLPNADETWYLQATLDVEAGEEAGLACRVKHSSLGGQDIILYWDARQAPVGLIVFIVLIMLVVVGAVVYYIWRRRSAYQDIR
T1 sequence (P01887 21-119 partner): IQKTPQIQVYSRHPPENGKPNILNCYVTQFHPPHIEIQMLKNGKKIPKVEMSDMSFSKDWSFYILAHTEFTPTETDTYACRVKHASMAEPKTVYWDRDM
Experimental: We studied this possibility directly by using a monoclonal antibody (L363) that specifically recognizes complexes of αGalCer bound to mCD1d ([Yu et al., 2007]). Mouse splenocytes were cultured with either αGalCer-C26:0 or representative Th2 cell-type cytokine-biasing analogs, and L363 staining was assessed on various cell types (Figure 3A). […] This was investigated further with more detailed kinetic studies in which immortalized mouse DC line JAWS II was cultured with each glycolipid and assessed for L363 surface staining at 0.5, 4, and 18 hr (Figure 3B). […]
Figure 3 Direct Analysis of Presentation of αGalCer Analogs with Complex-Specific mAb Staining (A) Mouse splenocytes cultured with either vehicle only (0.02% DMSO) or with the indicated αGalCer analogs (100 nM) were harvested after 1 hr or 19 hr of incubation and stained with mAb L363 or anti-CD1d mAb 1B1 and with mAbs specific for CD11c, CD19, and F4/80 (Figure S4). […] (B) JAWS II cells were incubated with glycolipids (250 nM) for various times ranging from 0.5–18 hr as indicated, stained with mAb L363, and analyzed by flow cytometry. […]
Recombinant CD1d proteins were produced and assembled into tetramers for staining as previously described ([Forestier et al., 2007]). […] All samples were analyzed with the FACSCalibur flow cytometer (BD Biosciences). […]

SMILES | TCR avidity of glycolipid-mCD1d complexes (murine iNKT cell TCRs) | L363 staining of splenocyte populations (mCD1d)
CCCCCCCCCCCCCCCCCCCCCCCC(=O)NC(COC1OC(CO)C(O)C(O)C1O)C(O)C(O)CCCCC (centres unmarked) [OCH] | weak binding | –
CCCCCCCCCCCCCCC(O)C(O)C(COC1OC(CO)C(O)C(O)C1O)NC(=O)CCCCCCCCC (centres unmarked) [αGalCer-C10:0] | – | extremely early appearance of L363 staining
